The source of these data is patent US11952364B2, “TRK inhibitors useful as anticancer drugs” (TYLIGAND BIOSCIENCE (SHANGHAI) LIMITED, priority 2018, dated 2024).

The experiment has as its system Ba/F3 ETV6-NTRK3-G696C cells. In words: Proliferation of Ba/F3 ETV6-NTRK3-G696C cells (CellTiter-Glo). Format: cell-based, mouse. As to conditions: Mus musculus. The text has this:
Ba/F3 ETV6-NTRK3-G696C is a stable transgenic cell line constructed by KYinno Biotechnology Co., Ltd. on mouse primary B cell Ba/F3 wherein NTRK3 is highly expressed with a mutation of G at position […] to C and fused with ETV6 to form ETV6-NTRK3. • [Test method]: Promega's CellTiter-Glo® Luminescent Cell Viability Assay kit was used to evaluate the inhibitory activity of the compounds on the proliferation of Ba/F3 ETV6-NTRK3-G696C cells. • [Instrument]: Spectramax M3 multifunctional microplate reader from Molecular Devices. • [Test materials]: Ba/F3 ETV6-NTRK3-G696C cell line (constructed by KYinno Biotechnology Co., Ltd. (Beijing)), 96-well transparent flat-bottomed black-walled cell culture plate (Corning, cat #3603), RPMI-1640 media (GE, product number #SH30027.01), fetal bovine serum FBS (Thermo Fisher, cat #10099-141), CellTiter-Glo® Luminescent Cell Viability Assay kit (Promega, cat #G7572), PBS (Solarbio, cat #P1020), DMSO (Sigma, cat #D2650). • [Experimental procedure]: When resuscitating Ba/F3 ETV6-NTRK3-G696C cells, • the freezing tube was quickly shaken in a 37° C. water bath to melt within 1 minute. The thawed cell suspension was mixed uniformly with RPMI1640 medium containing 10% FBS, centrifuged at 1000 rpm for 5 minutes, and the supernatant discarded. 5 mL of complete medium (RPMI1640 medium with 10% FBS) was taken to resuspend the cell pellets, charged into a cell culture flask with a bottom area of 25 cm^2, and incubated in a cell incubator at 37° C., 95% humidity and 5% CO2. Cells were allowed to passage when the number of cells reached about 10^6 cells/mL. For cell passage, the old cell suspension was directly pipetted evenly, 1/5 of the cell suspension was kept, 4 mL of new complete medium was added, after pipetting evenly, the cell flask was placed in the cell incubator for further culturing. Cell plating was performed when the number of cells reached about 10^6 cells/mL again. For cell plating, 1/5 of the cell suspension was kept for further culturing as in the cell passage method, and the remaining 4/5 of the cell suspension was placed in a 15 mL centrifuge tube, detected for cell viability by Trypan blue exclusion method to ensure that cell viability was above 90%. A cell suspension with a density of 5.56×10^4 viable cells/mL was prepared with complete medium, and 90 μL of such cell suspension was added to a 96-well cell culture plate to obtain the cell density of 5000 viable cells/mL in the cell culture plate. A control group containing no cells, no compound and only complete medium (i.e. culture medium control) and a control group containing no compound but containing cells (i.e. cell control) were set. The cell plate was placed in a cell incubator overnight. The 10 mM compound stock solution in DMSO was first serially diluted with DMSO at a dilution factor of 3.16 times, to obtain 9 concentrations, and the 10th concentration was set as DMSO control without compound. Then, PBS was used to dilute the DMSO solutions of compounds of different concentrations, at a dilution factor of 100 times, so that the DMSO concentration in the compound solution of each concentration was 1%. Finally, 10 μL of each of the above solutions was added to the corresponding cell culture plate, so that the initial compound concentration was 10 μM, with the remaining concentrations being successively diluted at a dilution factor of 3.16 times, and the DMSO content in the cell culture plate was 0.1%. The cell plate was placed in a cell incubator and cultured for 72 hours. For endpoint detection, the CellTiter-Glo reagent was melted, and the cell plate was moved to room temperature to equilibrate for 30 minutes, added with 100 μL of CellTiter-Glo for each well, and shaken on an orbital shaker for 5 minutes to fully lyse the cells. […]
A general note: Cellular ATP, detected with luciferase, serves as a proxy for viable cell number.

The mark [1] stands for this setting: BaF3, Table 9, read-out: Ba/F3 ETV6-NTRK3-G696C cell proliferation inhibitory activity (IC50).
[2] abbreviates: BaF3, 72 h, Table 7, 72 hours, read-out: Ba/F3 ETV6-NTRK3-G696C, IC50.

Where two headings read alike, the source gives them in different places.

As to `CCOc1ccc(C(=O)Nc2ccc(Oc3cc4cnn5c4c(c3-c3cn[nH]c3)CC5)c(F)c2)c(=O)n1-c1ccc(F)cc1` [Example 32, N-(4-((5-(1H-pyrazol-4-yl)-6,7-dihydropyrrolo[3,2,1-hi]-indazol-4-yl)oxy)-3-fluorophenyl)-6-ethoxy-1-(4-fluorophenyl)-2-oxo-12-dihydropyridine-3-carboxamide], the IC50 under setting [1] was found to be 4.7 nM.

As to `CC(C)Oc1ccc(C(=O)Nc2ccc(Oc3cc4cnn5c4c(c3-c3cn[nH]c3)CC5)c(F)c2)c(=O)n1-c1ccc(F)cc1` [Example 34, N-(4-((5-(1H-pyrazol-4-yl)-6,7-dihydropyrrolo[3,2,1-hi]-indazol-4-yl)oxy)-3-fluorophenyl)-1-(4-fluorophenyl)-6-isopropoxy-2-oxo-12-dihydropyrndine-3-carboxamide], the IC50 under setting [1] turned out to be 4.8 nM.

As for `O=C(Nc1cnn2ccc(N3CCC[C@@H]3c3cc(F)ccc3F)nc12)N1CC[C@H](O)C1` [LOXO-101, Larotrectinib, reference compound], under setting [2], the IC50 came to 1890 nM.

Consider `Cc1ccc(C(=O)Nc2ccc(Oc3cc4cnn(C)c4cc3-c3cn[nH]c3)c(F)c2)c(=O)n1-c1ccc(F)cc1` [Merestinib, reference compound], for which the IC50 by setting is: under setting [2], 10 nM; (BaF3, Table 7-1, separate test, read-out: Ba/F3 ETV6-NTRK3-G696C, IC50) 13 nM; (BaF3, Table 7-2, separate test, read-out: Ba/F3 ETV6-NTRK3-G696C, IC50) 1.7 nM.
